According to the supplement of paper PMC11451515:

System: SEM cells
Experiment: cell viability relative to DMSO control; higher = less cytotoxic
Conditions: 48 h
Procedure, shortened: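 Three leukemia lines were tested: NOMO1 and SEM at 500 cells/well and P12-Ichikawa at 1000 cells/well. Each was adapted for at least four passages in each medium and seeded in 5 μl in 1536-well plates, and library compounds in DMSO were pin-dosed from 47 μM to 0.79 nM in 11 threefold steps. After 48 h at 37°C, CellTiter-Glo One luminescence was read. Viability is a percentage relative to DMSO wells on each plate, with cell-free wells as background.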

[1] = HPLM + 10% dialyzed FBS, 0.000781 µM
[2] = HPLM + 10% dialyzed FBS, 0.00234 µM
[3] = HPLM + 10% dialyzed FBS, 0.00702 µM
[4] = HPLM + 10% dialyzed FBS, 0.0211 µM
[5] = HPLM + 10% dialyzed FBS, 0.0632 µM
[6] = HPLM + 10% dialyzed FBS, 0.19 µM
[7] = HPLM + 10% dialyzed FBS, 0.569 µM
[8] = HPLM + 10% dialyzed FBS, 1.71 µM
[9] = HPLM + 10% dialyzed FBS, 5.12 µM
[10] = HPLM + 10% dialyzed FBS, 15.4 µM
[11] = HPLM + 10% dialyzed FBS, 46.1 µM
[12] = RPMI 5 mM glucose + 10% FBS, 0.000781 µM
[13] = RPMI 5 mM glucose + 10% FBS, 0.00234 µM
[14] = RPMI 5 mM glucose + 10% FBS, 0.00702 µM
[15] = RPMI 5 mM glucose + 10% FBS, 0.0211 µM
[16] = RPMI 5 mM glucose + 10% FBS, 0.0632 µM
[17] = RPMI 5 mM glucose + 10% FBS, 0.19 µM
[18] = RPMI 5 mM glucose + 10% FBS, 0.569 µM
[19] = RPMI 5 mM glucose + 10% FBS, 1.71 µM
[20] = RPMI 5 mM glucose + 10% FBS, 5.12 µM
[21] = RPMI 5 mM glucose + 10% FBS, 15.4 µM
[22] = RPMI 5 mM glucose + 10% FBS, 46.1 µM
[23] = RPMI 5 mM glucose + 10% dialyzed FBS, 0.000781 µM
[24] = RPMI 5 mM glucose + 10% dialyzed FBS, 0.00234 µM
[25] = RPMI 5 mM glucose + 10% dialyzed FBS, 0.00702 µM
[26] = RPMI 5 mM glucose + 10% dialyzed FBS, 0.0211 µM
[27] = RPMI 5 mM glucose + 10% dialyzed FBS, 0.0632 µM
[28] = RPMI 5 mM glucose + 10% dialyzed FBS, 0.19 µM
[29] = RPMI 5 mM glucose + 10% dialyzed FBS, 0.569 µM
[30] = RPMI 5 mM glucose + 10% dialyzed FBS, 1.71 µM
[31] = RPMI 5 mM glucose + 10% dialyzed FBS, 5.12 µM
[32] = RPMI 5 mM glucose + 10% dialyzed FBS, 15.4 µM
[33] = RPMI 5 mM glucose + 10% dialyzed FBS, 46.1 µM

COC(=O)\C1=C\CCN(C)C1
cell viability [1]: 113% | cell viability [2]: 109% | cell viability [3]: 106% | cell viability [4]: 113% | cell viability [5]: 102% | cell viability [6]: 117% | cell viability [7]: 103% | cell viability [8]: 105% | cell viability [9]: 109% | cell viability [10]: 114% | cell viability [11]: 106% | cell viability [12]: 107% | cell viability [13]: 103% | cell viability [14]: 106% | cell viability [15]: 109% | cell viability [16]: 104% | cell viability [17]: 111% | cell viability [18]: 111% | cell viability [19]: 110% | cell viability [20]: 98.8% | cell viability [21]: 99.8% | cell viability [22]: 110% | cell viability [23]: 101% | cell viability [24]: 111% | cell viability [25]: 109% | cell viability [26]: 115% | cell viability [27]: 127% | cell viability [28]: 106% | cell viability [29]: 114% | cell viability [30]: 124% | cell viability [31]: 110% | cell viability [32]: 106% | cell viability [33]: 105%

CC(C)(O)c1cc2nc(-c3cnc(N)nc3)nc(N3CCOCC3)c2s1
cell viability [1]: 122% | cell viability [2]: 125% | cell viability [3]: 99.7% | cell viability [4]: 113% | cell viability [5]: 106% | cell viability [6]: 106% | cell viability [7]: 77.2% | cell viability [8]: 59.9% | cell viability [9]: 44.5% | cell viability [10]: 41% | cell viability [11]: 38% | cell viability [12]: 82.9% | cell viability [13]: 79.1% | cell viability [14]: 74.3% | cell viability [15]: 76% | cell viability [16]: 78.2% | cell viability [17]: 68.4% | cell viability [18]: 57.1% | cell viability [19]: 39.1% | cell viability [20]: 29.1% | cell viability [21]: 26.7% | cell viability [22]: 23.3% | cell viability [23]: 106% | cell viability [24]: 113% | cell viability [25]: 97.7% | cell viability [26]: 107% | cell viability [27]: 105% | cell viability [28]: 94.7% | cell viability [29]: 81.4% | cell viability [30]: 52.3% | cell viability [31]: 48.1% | cell viability [32]: 47.8% | cell viability [33]: 37.3%
